Biological target: T1, human mAChR M1 (Homo sapiens, UniProt P11229)
T1 construct: host or cells: CHO-K1
T1 sequence (P11229 1-460): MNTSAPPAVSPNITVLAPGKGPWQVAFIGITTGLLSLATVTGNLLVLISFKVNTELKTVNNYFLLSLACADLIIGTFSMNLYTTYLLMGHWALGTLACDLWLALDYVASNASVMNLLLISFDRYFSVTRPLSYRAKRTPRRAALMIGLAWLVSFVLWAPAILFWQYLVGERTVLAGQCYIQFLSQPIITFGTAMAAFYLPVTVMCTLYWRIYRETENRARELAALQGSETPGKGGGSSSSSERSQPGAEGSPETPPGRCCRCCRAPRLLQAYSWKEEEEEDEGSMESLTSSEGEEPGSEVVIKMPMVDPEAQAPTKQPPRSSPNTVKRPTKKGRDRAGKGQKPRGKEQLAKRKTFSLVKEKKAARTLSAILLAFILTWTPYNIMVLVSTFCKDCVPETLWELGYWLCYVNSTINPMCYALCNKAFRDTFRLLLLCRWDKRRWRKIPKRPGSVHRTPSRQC
Test: mAChR M1 cell-based functional assay (calcium mobilization, Fluo-4, FDSS)
Details: CHO-K1 cells stably expressing hM1; for Emax: EC20 acetylcholine response, read-out: Human M1 Emax; for EC50: positive allosteric modulator activity as increase in the EC20 acetylcholine response
Method: Chinese hamster ovary (CHO-K1) cells stably expressing rat (r)M1 were purchased from the American Type Culture Collection and cultured according to their indicated protocol. […] To make stable rM2, hM2, rM3, hM4, and rM4 cell lines for use in calcium mobilization assays, these cells also were stably transfected with a chimeric G-protein (Gqi5) (provided by B. R. Conklin, University of California, San Francisco) using Lipofectamine 2000. rM1, hM1, rM3, hM3, rM5, and hM5 cells were grown in Ham's F-12 medium containing 10% heat-inactivated fetal bovine serum (FBS), 20 mM HEPES, and 50 μg/mL G418 sulfate. rM2-Gqi5, hM2-Gqi5, and hM4-Gqi5 cells were grown in the same medium also containing 500 μg/mL Hygromycin B. Stable rM4-Gqi5 cells were grown in DMEM containing 10% heat-inactivated FBS, 20 mM HEPES, 400 μg/mL G418 sulfate, and 500 μg/mL Hygromycin B.
For high throughput measurement of agonist-evoked increases in intracellular calcium, CHO-K1 cells stably expressing muscarinic receptors were plated in growth medium lacking G418 and hygromycin at 15,000 cells/20 μL/well in Greiner 384-well black-walled, tissue culture (TC)-treated, clear-bottom plates (VWR). Cells were incubated overnight at 37° C. and 5% CO2. […] Compound master plates were formatted in an 11 point CRC format (1:3 dilutions) in 100% DMSO with a starting concentration of 10 mM using the BRAVO liquid handler (Agilent). Test compound CRCs were then transferred to daughter plates (240 nL) using the Echo acoustic plate reformatter (Labcyte, Sunnyvale, Calif.) and then diluted into assay buffer (40 μL) to a 2× stock using a Thermo Fisher Combi (Thermo Fisher Scientific, Waltham, Mass.).
Calcium flux was measured using the Functional Drug Screening System (FDSS) 6000 (Hamamatsu Corporation, Tokyo, Japan) as an increase in the fluorescent static ratio. Compounds were applied to cells (20 μL, 2×) using the automated system of the FDSS 6000 at 4 s into the 300 s protocol and the data were collected at 1 Hz. […] Agonist activity was analyzed as a concentration-dependent increase in calcium mobilization upon compound addition. Positive allosteric modulator activity was analyzed as a concentration-dependent increase in the EC20 acetylcholine response. Antagonist activity was analyzed as a concentration-dependent decrease in the EC80 acetylcholine response. Concentration-response curves were generated using a four-parameter logistical equation in XLfit curve fitting software (IDBS, Bridgewater, N.J.) for Excel (Microsoft, Redmond, Wash.) or Prism (GraphPad Software, Inc., San Diego, Calif.).
The compound numbers correspond to the compound numbers used in Table 1.

SMILES | Emax [%] | EC50 [nM]
CCn1ccc2c(Cc3ccc(-n4cccn4)cc3)cc(C(=O)N[C@H]3CCOC[C@@H]3O)nc21 [Compound 9, 1-ethyl-N-[(3R,4S)-3-hydroxytetrahydropyran-4-yl]-4-[(4-pyrazol-1-ylphenyl)methyl]pyrrolo[2,3-b]pyridine-6-carboxamide] | 64.7 | 20
Cc1nc(-c2ccc(Cc3cc(C(=O)N[C@@H]4CCOC4)nc4sccc34)cc2)co1 [Compound 137, 4-[[4-(2-methyloxazol-4-yl)phenyl]methyl]-N-[(3R)-tetrahydrofuran-3-yl]thieno[2,3-b]pyridine-6-carboxamide] | 59.5 | 1900
Cn1ccc(-c2ccc(Cc3cc(C(=O)NC4CC(F)C4)nc4sccc34)cn2)n1 (stereo not drawn) [Compound 110, N-(3-fluorocyclobutyl)-4-[[6-(1-methylpyrazol-3-yl)-3-pyridyl]methyl]thieno[2,3-b]pyridine-6-carboxamide] | 58.4 | 60
Cn1ccc(-c2ccc(Cc3cc(C(=O)NCC4CCOC4)nc4c3ccn4C)cn2)n1 (stereo not drawn) [Compound 151, 1-methyl-4-[[6-(1-methylpyrazol-3-yl)-3-pyridyl]methyl]-N-(tetrahydrofuran-3-ylmethyl)pyrrolo[2,3-b]pyridine-6-carboxamide] | 76.4 | 1210
Cn1ccc(-c2ccc(Cc3cc(C(=O)NCC4CCOCC4)nc4c3ccn4C)cc2)n1 [Compound 43, 1-methyl-4-[[4-(1-methylpyrazol-3-yl)phenyl]methyl]-N-(tetrahydropyran-4-ylmethyl)pyrrolo[2,3-b]pyridine-6-carboxamide] | 49.6 | 610
Cn1ccc2c(Cc3ccc(-c4cscn4)cc3)cc(C(=O)N[C@H]3CCOC3)nc21 [Compound 33, 1-methyl-N-[(3S)-tetrahydrofuran-3-yl]-4-[(4-thiazol-4-ylphenyl)methyl]pyrrolo[2,3-b]pyridine-6-carboxamide] | 50.6 | 2910
Cn1ccc(-c2ccc(Cc3cc(C(=O)N[C@H]4CCCC[C@@H]4O)nc4sccc34)cc2)n1 [Compound 88, N-[(1S,2S)-2-hydroxycyclohexyl]-4-[[4-(1-methylpyrazol-3-yl)phenyl]methyl]thieno[2,3-b]pyridine-6-carboxamide] | 62.4 | 50
Cn1ccc(-c2ccc(Cc3cc(C(=O)NC4CC5(COC5)C4)nc4sccc34)cc2)n1 [Compound 96, 4-[[4-(1-methylpyrazol-3-yl)phenyl]methyl]-N-(2-oxaspiro[3.3]heptan-6-yl)thieno[2,3-b]pyridine-6-carboxamide] | 69.9 | 280
Cn1cc(-c2ccc(Cc3cc(C(=O)N[C@@H]4CCOC4)nc4sccc34)cn2)cn1 [Compound 121, 4-[[6-(1-methylpyrazol-4-yl)-3-pyridyl]methyl]-N-[(3R)-tetrahydrofuran-3-yl]thieno[2,3-b]pyridine-6-carboxamide] | 58.9 | 550
Cn1ncc2c(Cc3ccc(-c4cscn4)cc3)cc(C(=O)N[C@H]3CCCC[C@@H]3O)nc21 [Compound 28, N-[(1S,2S)-2-hydroxycyclohexyl]-1-methyl-4-[(4-thiazol-4-ylphenyl)methyl]pyrazolo[3,4-b]pyridine-6-carboxamide] | 76.4 | 130
O=C(NC1CCOCC1)c1cc(Cc2ccc(-n3cccn3)cc2)c2ccsc2n1 [Compound 71, 4-[(4-pyrazol-1-ylphenyl)methyl]-N-tetrahydropyran-4-yl-thieno[2,3-b]pyridine-6-carboxamide] | 73.4 | 140
Cc1nc(-c2ccc(Cc3cc(C(=O)N[C@H]4CCCC[C@@H]4O)nc4c3ccn4C)cc2)co1 [Compound 52, N-[(1S,2S)-2-hydroxycyclohexyl]-1-methyl-4-[[4-(2-methyloxazol-4-yl)phenyl]methyl]pyrrolo[2,3-b]pyridine-6-carboxamide] | 80.1 | 100
CC1COCCC1NC(=O)c1cc(Cc2ccc(-n3cccn3)cc2)c2ccsc2n1 (stereo not drawn) [Compound 75] | 60.7 | 490
Cn1ccc(-c2ccc(Cc3cc(C(=O)NC4CCOCC4)nc4c3ccn4C)cn2)n1 [Compound 145, 1-methyl-4-[[6-(1-methylpyrazol-3-yl)-3-pyridyl]methyl]-N-tetrahydropyran-4-yl-pyrrolo[2,3-b]pyridine-6-carboxamide] | 77.6 | 470
Cn1cc(-c2ccc(Cc3cc(C(=O)NCC4CCOC4)nc4sccc34)cn2)cn1 (stereo not drawn) [Compound 122, 4-[[6-(1-methylpyrazol-4-yl)-3-pyridyl]methyl]-N-(tetrahydrofuran-3-ylmethyl)thieno[2,3-b]pyridine-6-carboxamide] | 57.5 | 700
Cc1nc(-c2ccc(Cc3cc(C(=O)NC4CC5(COC5)C4)nc4c3ccn4C)cc2)co1 [Compound 54, 1-methyl-4-[[4-(2-methyloxazol-4-yl)phenyl]methyl]-N-(2-oxaspiro[3.3]heptan-6-yl)pyrrolo[2,3-b]pyridine-6-carboxamide] | 84.6 | 380
Cn1ccc(-c2ccc(Cc3cc(C(=O)N[C@@H]4CCC[C@H]4O)nc4c3ccn4C)cc2)n1 [Compound 42, N-[(1R,2R)-2-hydroxycyclopentyl]-1-methy1-4-[[4-(1-methylpyrazol-3-yl)phenyl]methyl]pyrrolo[2,3-b]pyridine-6-carboxamide] | 74.3 | 370
Cc1nc(-c2ccc(Cc3cc(C(=O)N[C@H]4CCOC[C@@H]4O)nc4sccc34)cc2)co1 [Compound 130, N-[(3R,4S)-3-hydroxytetrahydropyran-4-yl]-4-[[4-(2-methyloxazol-4-yl)phenyl]methyl]thieno[2,3-b]pyridine-6-carboxamide] | 41.4 | 60
COCC(C)NC(=O)c1cc(Cc2ccc(-c3coc(C)n3)cc2)c2ccsc2n1 (stereo not drawn) [Compound 144, N-(2-methoxy-1-methyl-ethyl)-4-[[4-(2-methyloxazol-4-yl)phenyl]methyl]thieno[2,3-b]pyridine-6-carboxamide] | 64.2 | 950
CCn1ccc2c(Cc3ccc(-n4cccn4)cc3)cc(C(=O)N[C@H]3CCCC[C@@H]3O)nc21 [Compound 10, 1-ethyl-N-[(1S,2S)-2-hydroxycyclohexyl]-4-[(4-pyrazol-1-ylphenyl)methyl]pyrrolo[2,3-b]pyridine-6-carboxamide] | 69.9 | 60
COCC(C)NC(=O)c1cc(Cc2ccc(-c3ccn(C)n3)cc2)c2ccsc2n1 (stereo not drawn) [Compound 100, N-(2-methoxy-1-methyl-ethyl)-4-[[4-(1-methylpyrazol-3-yl)phenyl]methyl]thieno[2,3-b]pyridine-6-carboxamide] | 63.5 | 480
Cn1cc(-c2ccc(Cc3cc(C(=O)NC4CC(F)C4)nc4sccc34)cn2)cn1 (stereo not drawn) [Compound 125, N-(3-fluorocyclobutyl)-4-[[6-(1-methylpyrazol-4-yl)-3-pyridyl]methyl]thieno[2,3-b]pyridine-6-carboxamide] | 58.6 | 940
CC1(C)CC(NC(=O)c2cc(Cc3ccc(-n4cccn4)cc3)c3ccsc3n2)CCO1 (stereo not drawn) [Compound 72, N-(2,2-dimethyltetrahydropyran-4-yl)-4-[(4-pyrazol-1-ylphenyl)methyl]thieno[2,3-b]pyridine-6-carboxamide] | 69 | 1420
Cc1nc(-c2ccc(Cc3cc(C(=O)NCC4CCN4)nc4sccc34)cc2)co1 (stereo not drawn) [Compound 142, N-(azetidin-2-ylmethyl)-4-[[4-(2-methyloxazol-4-yl)phenyl]methyl]thieno[2,3-b]pyridine-6-carboxamide] | 60.1 | 2370

From US10899759B2, “Positive allosteric modulators of the muscarinic acetylcholine receptor M1” (Vanderbilt University, priority 2016, dated 2021)
